Measurements: patent publication US20250215029A1 (Recludix Pharma, Inc., priority 2022, published 2025)
Like-named read-outs stand apart in the source and are kept apart here.

Experiments:
pY705-STAT3 in PBMC = target: T1, pY705-STAT3 in PBMC (Homo sapiens, UniProt P40763); assay: MSD-pSTAT-PBMC Assay (pSTAT3, IL-6 stimulated); format: cell-based; details: PBMC, compound 3 hrs, then 10 ng/mL IL-6 for 10 min
T1 construct: Cryopreserved Peripheral Blood Mononuclear Cells (PBMC) are from AllCells; host or cells: cryopreserved PBMC
T1 sequence (P40763 whole entry): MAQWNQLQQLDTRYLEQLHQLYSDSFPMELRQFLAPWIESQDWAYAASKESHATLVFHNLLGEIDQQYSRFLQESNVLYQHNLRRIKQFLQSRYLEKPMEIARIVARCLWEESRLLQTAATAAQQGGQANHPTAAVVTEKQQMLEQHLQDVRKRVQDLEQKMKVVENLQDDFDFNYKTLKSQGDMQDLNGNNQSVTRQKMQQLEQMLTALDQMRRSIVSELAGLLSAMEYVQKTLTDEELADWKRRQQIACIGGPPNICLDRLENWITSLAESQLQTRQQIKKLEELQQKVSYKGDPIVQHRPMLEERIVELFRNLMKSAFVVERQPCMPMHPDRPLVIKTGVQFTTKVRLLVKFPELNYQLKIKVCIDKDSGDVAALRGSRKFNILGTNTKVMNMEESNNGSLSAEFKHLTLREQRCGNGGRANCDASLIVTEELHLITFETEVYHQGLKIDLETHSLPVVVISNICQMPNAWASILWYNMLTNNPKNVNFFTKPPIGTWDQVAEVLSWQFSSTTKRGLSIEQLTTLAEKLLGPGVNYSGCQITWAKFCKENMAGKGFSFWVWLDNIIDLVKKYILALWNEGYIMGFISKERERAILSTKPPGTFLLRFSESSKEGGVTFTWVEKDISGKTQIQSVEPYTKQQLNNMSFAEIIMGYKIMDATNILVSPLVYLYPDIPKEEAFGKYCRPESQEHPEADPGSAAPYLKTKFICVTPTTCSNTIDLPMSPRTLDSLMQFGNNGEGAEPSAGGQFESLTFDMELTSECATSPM
Method in brief: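 MSD electrochemiluminescence read-out: total STAT captured, probed with anti-pY641-STAT6 or anti-pY705-STAT3. Human PBMC, 3 h compound pretreatment, 10 min stimulation (IL-4 1 ng/mL or IL-6 10 ng/mL). Unstimulated signal subtracted, DMSO-normalized, variable-slope IC50.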

pY641-STAT6 in PBMC = target: T2, pY641-STAT6 in PBMC (Homo sapiens, UniProt P42226); assay: MSD-pSTAT-PBMC Assay (pSTAT6, IL-4 stimulated); format: cell-based; details: compound 3 hrs, then 1 ng/mL IL-4 for 10 min
T2 construct: Cryopreserved Peripheral Blood Mononuclear Cells (PBMC) are from AllCells; host or cells: cryopreserved PBMC
T2 sequence (P42226 1-847): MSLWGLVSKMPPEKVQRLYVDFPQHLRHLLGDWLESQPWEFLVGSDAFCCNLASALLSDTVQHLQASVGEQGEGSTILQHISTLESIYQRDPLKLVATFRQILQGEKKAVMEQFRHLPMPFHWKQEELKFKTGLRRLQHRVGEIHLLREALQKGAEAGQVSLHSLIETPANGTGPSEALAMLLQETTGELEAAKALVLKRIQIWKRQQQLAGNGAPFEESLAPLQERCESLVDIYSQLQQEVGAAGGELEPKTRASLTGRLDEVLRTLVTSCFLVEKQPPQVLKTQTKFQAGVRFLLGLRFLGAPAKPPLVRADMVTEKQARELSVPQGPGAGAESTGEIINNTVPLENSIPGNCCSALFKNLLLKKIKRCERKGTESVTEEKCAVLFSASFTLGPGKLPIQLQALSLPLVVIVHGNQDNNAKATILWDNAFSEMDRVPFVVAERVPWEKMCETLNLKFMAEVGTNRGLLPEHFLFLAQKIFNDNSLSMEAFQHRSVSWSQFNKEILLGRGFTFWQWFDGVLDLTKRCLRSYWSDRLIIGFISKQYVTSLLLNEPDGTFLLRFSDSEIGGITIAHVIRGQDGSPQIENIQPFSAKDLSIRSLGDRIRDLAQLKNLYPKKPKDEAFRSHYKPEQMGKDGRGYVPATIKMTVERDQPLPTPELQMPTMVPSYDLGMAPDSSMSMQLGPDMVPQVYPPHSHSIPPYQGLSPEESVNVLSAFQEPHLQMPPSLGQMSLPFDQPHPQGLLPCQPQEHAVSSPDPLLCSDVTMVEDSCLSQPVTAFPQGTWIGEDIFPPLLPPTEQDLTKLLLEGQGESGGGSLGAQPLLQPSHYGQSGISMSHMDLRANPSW
Method in brief: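 Cells are preincubated with compound for 3 hrs, then stimulated for 10 min, IL-4 at 1 ng/mL driving STAT6 phosphorylation and IL-6 at 10 ng/mL driving STAT3. Phospho-STAT in lysates is quantified by MSD immunoassay, and IC50 is fitted after subtracting unstimulated wells.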

[1] = PBMC, Table 1114, read-out: pSTAT6

Row | Compound | IC50 (pY705-STAT3 in PBMC; Table 115, read-out: STAT3) [nM] | IC50 (pY641-STAT6 in PBMC; STAT6, PBMC, Table 115) [nM] | IC50 (pY705-STAT3 in PBMC; Table 1114, read-out: pSTAT3) [nM] | IC50 (pY641-STAT6 in PBMC; [1]) [nM] | IC50 (pY641-STAT6 in PBMC; PBMC, Table 115, read-out: STAT6) [nM]
1 | C[C@H](NP(=O)(Cc1ccc2ccc(C(=O)N[C@H]3CCCC[C@H]4CC[C@@H](C(=O)N5CC(c6ccccc6)CC56CC6)N4C3=O)cc2c1)Oc1ccccc1)C(=O)OCc1ccccc1 (stereo partly drawn) [Compound 397, benzyl (((7-(((3S,6S,10aS)-5-oxo-3-(6-phenyl-4-azaspiro[2.4]heptane-4-carbonyl)decahydropyrrolo[1,2-a]azocin-6-yl)carbamoyl)naphthalen-2-yl)methyl)(phenoxy)phosphoryl)-L-alaninate] | > 3000 | > 3000 |  |  | 
2 | CCCOC(=O)[C@H](C)NP(=O)(Oc1ccccc1)C(F)c1ccc2sc(C(=O)N[C@H]3CCCC[C@H]4CC[C@@H](C(=O)N5C[C@@H](c6cccnc6)CC56CC6)N4C3=O)cc2c1 (stereo in doubt) [Compound 457, propyl (((R)-fluoro(2-(((3S,6S,10aS)-5-oxo-3-((R)-6-(pyridin-3-yl)-4-azaspiro[2.4]heptane-4-carbonyl)decahydropyrrolo[1,2-a]azocin-6-yl)carbamoyl)benzo [b]thiophen-5-yl)methyl)(phenoxy)phosphoryl)-L-alaninate] | > 3000 | < 100 |  |  | 
3 | CC(C)(C)C(=O)OCOP(=O)(OCOC(=O)C(C)(C)C)C(F)(F)c1ccc2sc(C(=O)N[C@H]3CCCCC[C@H]4CC[C@@H](C(=O)N5C[C@@H](C#N)[C@H](c6ccccc6)C5)N4C3=O)cc2c1 (relative stereo) [Compound 146, ((((2-(((3S,6S,11aS)-3-(rel-(trans)-3-cyano-4-phenylpyrrolidine-1-carbonyl)-5-oxodecahydro-1H-pyrrolo[1,2-a]azonin-6-yl)carbamoyl)benzo[b]thiophen-5-yl)difluoromethyl)phosphoryl)bis (oxy))bis(methylene) bis(2,2-dimethyl-propanoate)] |  |  | 1000 to 3000 | < 100 | 
4 | CCC(CC)COC(=O)[C@H](C)NP(=O)(Cc1ccc2ccc(C(=O)N[C@H]3CCCC[C@H]4CC[C@@H](C(=O)N5CC(c6ccccc6)CC56CC6)N4C3=O)cc2c1)Oc1ccccc1 (stereo partly drawn) [Compound 404, 2-ethylbutyl (((7-(((3S,6S,10aS)-5-oxo-3-(6-phenyl-4-azaspiro[2.4]heptane-4-carbonyl)decahydropyrrolo[1,2-a]azocin-6-yl)carbamoyl)naphthalen-2-yl)methyl)(phenoxy)phosphoryl)-L-alaninate] | > 3000 | 1000 to 3000 |  |  | 
5 | CN(C(=O)[C@@H]1CC[C@@H]2CCCC[C@H](NC(=O)c3cc4cc(C(F)(F)P(=O)(OCOC(=O)C(C)(C)C)OCOC(=O)C(C)(C)C)ccc4[nH]3)C(=O)N21)c1ccccc1 [Compound 142, (((difluoro(2-(((3S,6S,10aS)-3-(methyl(phenyl)carbamoyl)-5-oxodecahydro-pyrrolo[1,2-a]azocin-6-yl)carbamoyl)-1H-indol-5-yl)methyl)phosphoryl)bis(oxy)) bis(methylene) bis(2,2-dimethylpropanoate)] |  |  | 100 to 1000 | < 100 | 
6 | CC(C)(C)C(=O)OCOP(=O)(OCOC(=O)C(C)(C)C)C(F)(F)c1ccc2sc(C(=O)N[C@H]3CCC[C@H]4CCC[C@@H](C(=O)N5CC(C#N)C(c6ccccc6)C5)N4C3=O)cc2c1 (stereo partly drawn) [Compound 170, ((((2-(((4S,7S,10aS)-4-(rel-(trans)-3-cyano-4-phenylpyrrolidine-1-carbonyl)-6-oxodecahydropyrido [1,2-a]azepin-7-yl)carbamoyl)benzo[b]thiophen-5-yl)difluoromethyl)phosphoryl)bis(oxy)) bis(methylene) bis(2,2-dimethylpropanoate)] |  |  | 100 to 1000 | < 100 | 
7 | CC(C)C(=O)SCCOP(=O)(OCCSC(=O)C(C)C)C(F)(F)c1ccc2sc(C(=O)N[C@H]3CCCCC4CC[C@@H](C(=O)N5C[C@H](c6ccccc6)[C@@H](C#N)C5)N4C3=O)cc2c1 (single isomer, unassigned) [Compound 156, S,S′-(((((2-(((3S,6S,10aS)-3-((3S,4R or 3R,4S)-3-cyano-4-phenylpyrrolidine-1-carbonyl)-5-oxodecahydro-pyrrolo[1,2-a]azocin-6-yl)carbamoyl)benzo[b]thiophen-5-yl)difluoromethyl)phosphoryl)bis(oxy))bis(ethane-2,1-diyl)) bis(2-methylpropane-thioate)] |  |  | 100 to 1000 | < 100 | 
8 | CC(C)(C)C(=O)OCOP(=O)(OCOC(=O)C(C)(C)C)C(F)(F)c1ccc2ccc(C(=O)N[C@H]3CCCC[C@H]4CC[C@@H](C(=O)N5C[C@@H](C#N)[C@]6(C5)C(=O)Nc5ccccc56)N4C3=O)cc2c1 (single isomer, unassigned) [Compound 193] |  |  | < 100 | < 100 | 
9 | CC(C)CC(=O)SCCOP(=O)(OCCSC(=O)CC(C)C)C(F)(F)c1ccc2ccc(C(=O)N[C@H]3CCCC[C@H]4CC[C@@H](C(=O)N5C[C@@H](C#N)[C@H](c6cc[nH]c(=O)c6)C5)N4C3=O)cc2c1 (single isomer, unassigned) [Compound 168, S,S′-(((((7-(((3S,6S,10aS)-3-((3S,4R or 3R,4S)-3-cyano-4-(2-oxo-1,2-dihydropyridin-4-yl)pyrrolidine-1-carbonyl)-5-oxodecahydropyrrolo [1,2-a]azocin-6-yl)carbamoyl)naphthalen-2-yl)difluoromethyl)phosphoryl)bis(oxy))bis(ethane-2,1-diyl)) bis(3-methylbutane thioate)] |  |  | 100 to 1000 | < 100 | 
10 | CC(C)OC(=O)OCOP(=O)(Cc1ccc2sc(C(=O)N[C@H]3CCCC4CC[C@@H](C(=O)N5CC(c6cccnc6)C5)N4C3=O)cc2c1)OCOC(=O)OC(C)C (stereo partly drawn) [Compound 158, diisopropyl (((((2-(((3S,6S,9aS)-5-oxo-3-(3-(pyridin-3-yl)azetidine-1-carbonyl)octahydro-1H-pyrrolo[1,2-a]azepin-6-yl)carbamoyl)benzo [b]thiophen-5-yl)methyl)phosphoryl)bis (oxy))bis(methyl-ene))bis(carbonate)] |  |  | < 100 | > 3000 | 
11 | CC(C)CC(=O)SCCOP(=O)(OCCSC(=O)CC(C)C)C(F)(F)c1ccc2ccc(C(=O)N[C@H]3CCCC[C@H]4CC[C@@H](C(=O)N5CC(c6ccccc6)CC56CC6)N4C3=O)cc2c1 (stereo partly drawn) [Compound 1101, S,S′-((((difluoro(7-(((3S,6S,10aS)-5-oxo-3-(6-phenyl-4-azaspiro[2.4]heptane-4-carbonyl)decahydropyrrolo[1,2-a]azocin-6-yl)carbamoyl)naphthalen-2-yl)methyl)phosphoryl)bis(oxy))bis(ethane-2,1-diyl)) bis(3-methylbutanethioate)] | > 3000 |  |  |  | < 100
12 | CCCOC(=O)[C@H](C)NP(=O)(Oc1ccccc1)[C@H](F)c1ccc2sc(C(=O)N[C@H]3CCC[C@H]4CC[C@@H](C(=O)N5CC(c6cnccc6N(C)C)C5)N4C3=O)cc2c1 (single isomer, unassigned) [Compound 954] | < 100 | > 3000 |  |  | 
13 | CCCOC(=O)[C@H](C)NP(=O)(Oc1ccccc1)C(F)c1ccc2sc(C(=O)N[C@H]3C[C@H](C)C[C@H]4CC[C@@H](C(=O)N5CC(c6cnccc6F)C5)N4C3=O)cc2c1 (stereo partly drawn) [Compound 263, propyl ((fluoro(2-(((3S,6S,8S,9aR)-3-(3-(4-fluoropyridin-3-yl)azetidine-1-carbonyl)-8-methyl-5-oxooctahydro-1H-pyrrolo[1,2-a]azepin-6-yl)carbamoyl)benzo [b]thiophen-5-yl)methyl)(phenoxy)phosphoryl)-L-alaninate] | < 100 | > 3000 |  |  | 
14 | CN(C(=O)[C@@H]1CC[C@@H]2C/C=C\C[C@H](NC(=O)c3cc4cc(C(F)(F)P(=O)(OCOC(=O)C(C)(C)C)OCOC(=O)C(C)(C)C)ccc4[nH]3)C(=O)N21)c1ccccc1 [Compound 141, (((difluoro(2-(((3S,6S,10aR,Z)-3-(methyl (phenyl)carbamoyl)-5-oxo-1,2,3,5,6,7,10,10a-octahydropyrrolo [1,2-a]azocin-6-yl)carbamoyl)-1H-indol-5-yl)methyl)phosphoryl)bis (oxy))bis (methylene) bis(2,2-dimethylpropanoate)] |  |  | 100 to 1000 | 100 to 1000 | 
